Format in all cases: functional
The test system of assay [1] is Escherichia coli. The assay can be described thus: Antibacterial activity against Escherichia coli ATCC 25922 assessed as growth inhibition at 1.56 to 25 ug/mL.
For assay [2], the system named is Escherichia coli. In words: microbe, parasite or virus in culture. The following applies: ATCC 25922.
Description: Antibacterial activity against Escherichia coli ATCC 25922 assessed as growth inhibition by serial plate dilution method
Assay [3] deals with Staphylococcus aureus. In words: Antibacterial activity against Staphylococcus aureus ATCC 25923 assessed as growth inhibition at 1.56 to 25 ug/mL.
The subject of assay [4] is Staphylococcus aureus. In words: Antibacterial activity against Staphylococcus aureus ATCC 25923 assessed as growth inhibition by serial plate dilution method.
In assay [5] the test system is Radical scavenging activity. In words: Antioxidant activity assessed as inhibition of DPPH radical generation at 4000 ug/mL after 15 min by UV-Vis spectrophotometric analysis relative to control. The following applies: at 4000 µg/mL.
Assay [6] concerns Aspergillus fumigatus. In words: Antifungal activity against Aspergillus fumigatus NCIM 902 assessed as growth inhibition at 1.56 to 25 ug/mL.
The subject of assay [7] is Aspergillus fumigatus. In words: Antifungal activity against Aspergillus fumigatus NCIM 902 assessed as growth inhibition by serial plate dilution method.
The subject of assay [8] is Aspergillus flavus. The assay can be described thus: Antifungal activity against Aspergillus flavus NCIM 524 assessed as growth inhibition at 1.56 to 25 ug/mL.
Assay [9] deals with Aspergillus flavus. In words: Antifungal activity against Aspergillus flavus NCIM 524 assessed as growth inhibition by serial plate dilution method.
Assay [10] has as its system Trichophyton mentagrophytes. In words: Antifungal activity against Trichophyton mentagrophytes assessed as growth inhibition at 1.56 to 25 ug/mL.
Assay [11] relates to Trichophyton mentagrophytes. In words: Antifungal activity against Trichophyton mentagrophytes assessed as growth inhibition by serial plate dilution method.
Assay [12] deals with Talaromyces marneffei. In words: Antifungal activity against Talaromyces marneffei assessed as growth inhibition at 1.56 to 25 ug/mL.
In assay [13] the test system is Talaromyces marneffei. The assay can be described thus: Antifungal activity against Talaromyces marneffei assessed as growth inhibition by serial plate dilution method.
Assay [14] relates to Klebsiella pneumoniae. In words: Antibacterial activity against Klebsiella pneumoniae assessed as growth inhibition by serial plate dilution method.
The subject of assay [15] is Klebsiella pneumoniae. The assay can be described thus: Antibacterial activity against Klebsiella pneumoniae assessed as growth inhibition at 1.56 to 25 ug/mL.
Assay [16] concerns Pseudomonas aeruginosa. In words: Antibacterial activity against Pseudomonas aeruginosa ATCC 27853 assessed as growth inhibition at 1.56 to 25 ug/mL.
For assay [17], the system named is Pseudomonas aeruginosa. In words: Antibacterial activity against Pseudomonas aeruginosa ATCC 27853 assessed as growth inhibition by serial plate dilution method.

The structures appear in SMILES notation. Values after ≈ are worked out from the molar mass of the structure shown. Where only a bound is given, the exact number is not on record here.

On to `COc1ccc(C2=NN(c3nc(-c4ccc([N+](=O)[O-])cc4)cs3)C(c3ccc(-c4ccc(Br)cc4)o3)C2)cc1OC` (stereo unspecified), for which the “diameter of the inhibition zone (DIZ)” value (with Escherichia coli [1]; in the assay on Staphylococcus aureus [3]; with Aspergillus fumigatus [6]; in the assay on Aspergillus flavus [8]; in assay [10]; with Talaromyces marneffei [12]) was 11 mm throughout. Moreover, the “diameter of the inhibition zone (DIZ)” value in the assay with Klebsiella pneumoniae [15] and with Pseudomonas aeruginosa [16] was 11 mm throughout. Moreover, the MIC (with Escherichia coli [2]; in the assay on Staphylococcus aureus [4]; with Aspergillus fumigatus [7]; in the assay on Aspergillus flavus [9]; in assay [11]; with Talaromyces marneffei [13]) was 12.5 µg/mL (≈ 19.8 µM) in each case. Further, the MIC in the assay with Klebsiella pneumoniae [14] and with Pseudomonas aeruginosa [17] was 12.5 µg/mL (≈ 19.8 µM) throughout. For the same compound, in assay [5], the inhibition (commonly the relative decrease from the control value, in per cent) came out at 69%.
Turning to `COc1ccc(C2=NN(c3nc(-c4ccc([N+](=O)[O-])cc4)cs3)C(c3ccc(-c4ccc(Cl)cc4Cl)o3)C2)cc1OC` (stereo unspecified), the “diameter of the inhibition zone (DIZ)” value (with Escherichia coli [1]; in the assay on Staphylococcus aureus [3]; in the assay on Aspergillus fumigatus [6]; in the assay on Aspergillus flavus [8]; in assay [10]; in the assay with Talaromyces marneffei [12]) was 16 mm throughout. Further, the “diameter of the inhibition zone (DIZ)” value in the assay on Klebsiella pneumoniae [15] and in the assay on Pseudomonas aeruginosa [16] was 16 mm each time. Further, the MIC (with Escherichia coli [2]; in the assay with Staphylococcus aureus [4]; in the assay with Aspergillus fumigatus [7]; in the assay with Aspergillus flavus [9]; in [11]; in the assay with Talaromyces marneffei [13]) was 6.25 µg/mL (≈ 10.1 µM) in each case. In addition, the MIC with Klebsiella pneumoniae [14] and with Pseudomonas aeruginosa [17] was 6.25 µg/mL (≈ 10.1 µM) in each case. In assay [5], the inhibition is 86%.
Consider `COc1ccc(C2=NN(c3nc(-c4ccc([N+](=O)[O-])cc4)cs3)C(c3ccc(SC)cc3)C2)cc1` (stereo unspecified), for which the diameter of the inhibition zone (DIZ) (in the assay on Escherichia coli [1]; in the assay with Staphylococcus aureus [3]; in the assay on Aspergillus fumigatus [6]; in the assay with Aspergillus flavus [8]; in [10]; in the assay on Talaromyces marneffei [12]) was under 10 mm each time. Further, the diameter of the inhibition zone (DIZ) in the assay on Klebsiella pneumoniae [15] and in the assay on Pseudomonas aeruginosa [16] was under 10 mm each time. Also, the MIC (in the assay with Escherichia coli [2]; in the assay on Staphylococcus aureus [4]; in the assay with Aspergillus fumigatus [7]; in the assay with Aspergillus flavus [9]; in assay [11]; in the assay with Talaromyces marneffei [13]) was 25 µg/mL (≈ 49.7 µM) throughout. The MIC in the assay with Klebsiella pneumoniae [14] and in the assay with Pseudomonas aeruginosa [17] was 25 µg/mL (≈ 49.7 µM) in each case. For the same compound, in assay [5], the inhibition is 79%.
For the compound `CSc1ccc(C2CC(c3ccc([N+](=O)[O-])cc3)=NN2c2nc(-c3ccc([N+](=O)[O-])cc3)cs2)cc1` (stereo unspecified), the diameter of the inhibition zone (DIZ) (in the assay on Escherichia coli [1]; in the assay with Staphylococcus aureus [3]; with Aspergillus fumigatus [6]; in the assay with Aspergillus flavus [8]; in assay [10]; in the assay on Talaromyces marneffei [12]) was under 10 mm in each case. Besides, the diameter of the inhibition zone (DIZ) in the assay with Klebsiella pneumoniae [15] and in the assay with Pseudomonas aeruginosa [16] was under 10 mm each time. Moreover, the MIC (against Escherichia coli [2]; with Staphylococcus aureus [4]; with Aspergillus fumigatus [7]; with Aspergillus flavus [9]; in assay [11]; in the assay with Talaromyces marneffei [13]) was 25 µg/mL (≈ 48.3 µM) throughout. The MIC with Klebsiella pneumoniae [14] and with Pseudomonas aeruginosa [17] was 25 µg/mL (≈ 48.3 µM) throughout. Further, the inhibition in [5] stood at 75%.
For `CSc1ccc(C2CC(c3ccc(Cl)cc3Cl)=NN2c2nc(-c3ccc([N+](=O)[O-])cc3)cs2)cc1` (stereo unspecified), the “diameter of the inhibition zone (DIZ)” value (in the assay on Escherichia coli [1]; in the assay on Staphylococcus aureus [3]; with Aspergillus fumigatus [6]; with Aspergillus flavus [8]; in assay [10]; in the assay with Talaromyces marneffei [12]) was 16 mm each time. Moreover, the “diameter of the inhibition zone (DIZ)” value in the assay on Klebsiella pneumoniae [15] and in the assay with Pseudomonas aeruginosa [16] was 16 mm throughout. The MIC (against Escherichia coli [2]; in the assay with Staphylococcus aureus [4]; with Aspergillus fumigatus [7]; in the assay on Aspergillus flavus [9]; in assay [11]; in the assay with Talaromyces marneffei [13]) was 6.25 µg/mL (≈ 11.5 µM) in each case. Also, the MIC with Klebsiella pneumoniae [14] and in the assay on Pseudomonas aeruginosa [17] was 6.25 µg/mL (≈ 11.5 µM) throughout. Besides, in [5], the inhibition came out at 88%.
On to `COc1ccc(C2=NN(c3nc(-c4ccc([N+](=O)[O-])cc4)cs3)C(c3ccc(SC)cc3)C2)cc1OC` (stereo unspecified), for which the diameter of the inhibition zone (DIZ) (in the assay with Escherichia coli [1]; in the assay with Staphylococcus aureus [3]; in the assay with Aspergillus fumigatus [6]; in the assay on Aspergillus flavus [8]; in assay [10]; with Talaromyces marneffei [12]) was under 10 mm throughout. For the same compound, the diameter of the inhibition zone (DIZ) with Klebsiella pneumoniae [15] and with Pseudomonas aeruginosa [16] was under 10 mm each time. Moreover, the MIC (against Escherichia coli [2]; with Staphylococcus aureus [4]; in the assay with Aspergillus fumigatus [7]; in the assay with Aspergillus flavus [9]; in assay [11]; with Talaromyces marneffei [13]) was 25 µg/mL (≈ 46.9 µM) throughout. The MIC in the assay on Klebsiella pneumoniae [14] and in the assay on Pseudomonas aeruginosa [17] was 25 µg/mL (≈ 46.9 µM) throughout. Further, the inhibition in assay [5] was determined as 86%.
On to `COc1ccc(C2=NN(c3nc(-c4ccc([N+](=O)[O-])cc4)cs3)C(c3ccc(-c4c(C)cccc4[N+](=O)[O-])o3)C2)cc1OC` (stereo unspecified), for which the “diameter of the inhibition zone (DIZ)” value (in the assay on Escherichia coli [1]; with Staphylococcus aureus [3]; in the assay with Aspergillus fumigatus [6]; in the assay on Aspergillus flavus [8]; in assay [10]; in the assay with Talaromyces marneffei [12]) was 11 mm in each case. For the same compound, the “diameter of the inhibition zone (DIZ)” value in the assay on Klebsiella pneumoniae [15] and in the assay with Pseudomonas aeruginosa [16] was 11 mm each time. In addition, the MIC (in the assay on Escherichia coli [2]; with Staphylococcus aureus [4]; with Aspergillus fumigatus [7]; in the assay on Aspergillus flavus [9]; in assay [11]; in the assay on Talaromyces marneffei [13]) was 12.5 µg/mL (≈ 20.4 µM) in each case. The MIC with Klebsiella pneumoniae [14] and in the assay on Pseudomonas aeruginosa [17] was 12.5 µg/mL (≈ 20.4 µM) throughout. The inhibition in assay [5] is 66%.
With `O=C1O[C@H]([C@@H](O)CO)C(O)=C1O`, the inhibition in assay [5] was found to be 96%.
On to `CC1(C)S[C@@H]2[C@H](NC(=O)[C@H](N)c3ccccc3)C(=O)N2[C@H]1C(=O)O` [AMPICILLIN], for which the “diameter of the inhibition zone (DIZ)” value with Escherichia coli [1] turned out to be 30 mm; in the assay on Staphylococcus aureus [3], 22 mm; with Klebsiella pneumoniae [15] it was 23 mm; in the assay on Pseudomonas aeruginosa [16] it was 25 mm. Further, the MIC came out at 6.25 µg/mL (≈ 17.9 µM) in the assay on Escherichia coli [2], 1.56 µg/mL (≈ 4.46 µM) in the assay with Staphylococcus aureus [4], 6.25 µg/mL (≈ 17.9 µM) in the assay with Klebsiella pneumoniae [14] and 6.25 µg/mL (≈ 17.9 µM) with Pseudomonas aeruginosa [17].
Turning to `CCC(C)n1ncn(-c2ccc(N3CCN(c4ccc(OCC5COC(Cn6cncn6)(c6ccc(Cl)cc6Cl)O5)cc4)CC3)cc2)c1=O` (stereo unspecified) [ITRACONAZOLE], the “diameter of the inhibition zone (DIZ)” value in the assay with Aspergillus fumigatus [6] is on record as 30 mm; with Aspergillus flavus [8], 22 mm; in assay [10] it was 23 mm; in the assay with Talaromyces marneffei [12] it was 25 mm. The MIC in the assay on Aspergillus fumigatus [7] stood at 6.25 µg/mL (≈ 8.86 µM); with Aspergillus flavus [9], 1.56 µg/mL (≈ 2.21 µM); in assay [11] it was 6.25 µg/mL (≈ 8.86 µM); with Talaromyces marneffei [13], 6.25 µg/mL (≈ 8.86 µM).

These data come from ChEMBL document CHEMBL3045838, “Synthesis, antimicrobial and antioxidant activities of 2-[1-{3,5-diaryl-4,5-dihydro-1H-pyrazolenyl}]-4-(4-nitrophenyl)-[1,3]-thiazoles” (2013).
